The values below come from ChEMBL document CHEMBL1909046, “DrugMatrix in vitro pharmacology data”.

Molecules are shown by their SMILES.

Test system in one data set: not listed separately
The data set is described as follows: DRUGMATRIX: Calcium Channel Type L, Dihydropyridine radioligand binding (ligand: [3H] Nitrendipine). Format: cell membranes, Rattus norvegicus, Wistar, Cerebral cortex, Membrane. The note with it: Not Active = under 50% inhibition at 10 µM.
Take `COc1ccc2c(c1)c(CC(=O)OCC(=O)O)c(C)n2C(=O)c1ccc(Cl)cc1` [ACEMETACIN]: the IC50 entry is “Not Active” and the Ki result was “Not Active”.

In another data set the target is Kappa-type opioid receptor (Homo sapiens, UniProt P41145). Put plainly: DRUGMATRIX: Opiate kappa (OP2, KOP) radioligand binding (ligand: [3H] Diprenorphine). Format: cell membranes, HEK293, Membrane. The conditions noted are these: hek293; Not Active = under 50% inhibition at 10 µM.
Chain of Kappa-type opioid receptor (P41145 whole entry): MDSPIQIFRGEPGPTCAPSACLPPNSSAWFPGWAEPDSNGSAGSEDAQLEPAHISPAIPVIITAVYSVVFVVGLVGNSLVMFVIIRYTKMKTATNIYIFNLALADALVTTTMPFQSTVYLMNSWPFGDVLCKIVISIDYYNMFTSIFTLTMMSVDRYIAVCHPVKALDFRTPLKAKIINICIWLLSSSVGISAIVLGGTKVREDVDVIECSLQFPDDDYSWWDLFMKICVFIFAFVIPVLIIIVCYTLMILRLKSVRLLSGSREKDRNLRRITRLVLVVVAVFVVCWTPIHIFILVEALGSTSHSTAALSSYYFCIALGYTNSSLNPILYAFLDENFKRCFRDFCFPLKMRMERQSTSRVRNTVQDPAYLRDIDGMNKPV
For the compound `COc1ccc2c(c1)c(CC(=O)OCC(=O)O)c(C)n2C(=O)c1ccc(Cl)cc1` [ACEMETACIN], the IC50 entry is “Not Active”.

In a further data set the target is Cannabinoid receptor 1 (Homo sapiens, UniProt P21554). Format: cell membranes, Membrane. The note with it: chem-1. Note: in other assays of this panel Not Active means under 50% inhibition at 10 µM.
Chain of Cannabinoid receptor 1 (P21554 whole entry): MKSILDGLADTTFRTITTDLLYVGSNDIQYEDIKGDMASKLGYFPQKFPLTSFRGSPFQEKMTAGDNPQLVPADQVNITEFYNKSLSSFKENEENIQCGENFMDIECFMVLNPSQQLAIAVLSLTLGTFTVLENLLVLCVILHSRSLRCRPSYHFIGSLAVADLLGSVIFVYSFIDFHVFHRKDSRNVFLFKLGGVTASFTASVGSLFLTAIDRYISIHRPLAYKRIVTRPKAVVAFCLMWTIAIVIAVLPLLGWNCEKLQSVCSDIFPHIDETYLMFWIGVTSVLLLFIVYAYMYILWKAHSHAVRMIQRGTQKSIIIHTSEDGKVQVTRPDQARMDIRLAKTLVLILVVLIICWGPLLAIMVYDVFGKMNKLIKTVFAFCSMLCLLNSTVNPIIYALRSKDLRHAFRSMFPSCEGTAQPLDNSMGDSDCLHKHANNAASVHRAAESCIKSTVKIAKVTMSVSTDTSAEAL
For `COc1ccc2c(c1)c(CC(=O)OCC(=O)O)c(C)n2C(=O)c1ccc(Cl)cc1` [ACEMETACIN], the IC50 entry is given as “Not Active”.

Test system in the next data set: not listed separately
Put plainly: DRUGMATRIX: GABAA, Flunitrazepam, Central radioligand binding (ligand: [3H] Flunitrazepam). Format: cell membranes, Rattus norvegicus, Wistar, Brain, Membrane. The conditions noted are these: Not Active = under 50% inhibition at 10 µM.
In the case of `COc1ccc2c(c1)c(CC(=O)OCC(=O)O)c(C)n2C(=O)c1ccc(Cl)cc1` [ACEMETACIN], the IC50 result is on record as “Not Active” and the Ki entry is given as “Not Active”.

The target of a further data set is Protein phosphatase 3 catalytic subunit alpha (Homo sapiens, UniProt Q08209). The arrangement: species or system Escherichia coli.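 Note: inhibition of calcineurin (PP2B) enzyme activity, measured with DiFMUP as the substrate; in other assays of this panel Not Active means under 50% inhibition at 10 µM.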
Conditions: not given
In the case of `COc1ccc2c(c1)c(CC(=O)OCC(=O)O)c(C)n2C(=O)c1ccc(Cl)cc1` [ACEMETACIN], the IC50 result is “Not Active”.

The target of the next data set is Beta-2 adrenergic receptor (Homo sapiens, UniProt P07550). Put plainly: DRUGMATRIX: Adrenergic beta2 radioligand binding (ligand: [3H] CGP-12177). Format: cell membranes, Membrane. The conditions noted are these: cho; Not Active = under 50% inhibition at 10 µM.
Chain of Beta-2 adrenergic receptor (P07550 whole entry): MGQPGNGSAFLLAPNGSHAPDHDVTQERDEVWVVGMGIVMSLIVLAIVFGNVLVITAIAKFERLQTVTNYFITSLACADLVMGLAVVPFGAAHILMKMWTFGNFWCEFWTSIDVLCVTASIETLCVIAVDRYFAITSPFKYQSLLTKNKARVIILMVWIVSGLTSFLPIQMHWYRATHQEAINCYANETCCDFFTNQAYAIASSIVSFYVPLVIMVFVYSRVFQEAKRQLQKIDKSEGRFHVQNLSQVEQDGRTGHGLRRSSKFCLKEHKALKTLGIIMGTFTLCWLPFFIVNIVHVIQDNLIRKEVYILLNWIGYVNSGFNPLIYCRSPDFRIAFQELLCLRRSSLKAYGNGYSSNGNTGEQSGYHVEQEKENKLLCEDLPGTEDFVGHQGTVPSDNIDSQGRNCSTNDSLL
As to `COc1ccc2c(c1)c(CC(=O)OCC(=O)O)c(C)n2C(=O)c1ccc(Cl)cc1` [ACEMETACIN], the IC50 entry was “Not Active”.

The next data set addresses T1, Alpha-2C adrenergic receptor (Homo sapiens, UniProt P18825).
T1 sequence (P18825 whole entry): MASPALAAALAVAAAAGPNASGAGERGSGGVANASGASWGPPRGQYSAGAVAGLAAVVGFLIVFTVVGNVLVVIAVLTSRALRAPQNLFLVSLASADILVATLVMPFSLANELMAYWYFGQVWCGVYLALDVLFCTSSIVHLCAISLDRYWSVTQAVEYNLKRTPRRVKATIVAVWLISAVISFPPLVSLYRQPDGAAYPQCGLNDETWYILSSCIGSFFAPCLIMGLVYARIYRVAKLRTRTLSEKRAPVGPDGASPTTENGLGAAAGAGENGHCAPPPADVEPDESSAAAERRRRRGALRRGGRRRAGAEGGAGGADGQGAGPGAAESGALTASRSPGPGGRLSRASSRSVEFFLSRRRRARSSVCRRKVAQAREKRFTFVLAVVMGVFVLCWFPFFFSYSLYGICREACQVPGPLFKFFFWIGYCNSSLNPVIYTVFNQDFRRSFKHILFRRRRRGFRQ
Put plainly: DRUGMATRIX: Adrenergic Alpha-2C radioligand binding (ligand: [3H] MK-912). Format: cell membranes, Sf9, Membrane. The note with it: sf9.
`COc1ccc2c(c1)c(CC(=O)OCC(=O)O)c(C)n2C(=O)c1ccc(Cl)cc1` [ACEMETACIN]: the IC50 entry is “Not Active”.

The target in another data set is Sodium-dependent noradrenaline transporter (Homo sapiens, UniProt P23975). The data set is described as follows: DRUGMATRIX: Norepinephrine Transporter radioligand binding (ligand: [125I] RTI-55). Format: cell membranes, MDCK, Membrane. The conditions noted are these: mdck; Not Active = under 50% inhibition at 10 µM.
Chain of Sodium-dependent noradrenaline transporter (P23975 whole entry): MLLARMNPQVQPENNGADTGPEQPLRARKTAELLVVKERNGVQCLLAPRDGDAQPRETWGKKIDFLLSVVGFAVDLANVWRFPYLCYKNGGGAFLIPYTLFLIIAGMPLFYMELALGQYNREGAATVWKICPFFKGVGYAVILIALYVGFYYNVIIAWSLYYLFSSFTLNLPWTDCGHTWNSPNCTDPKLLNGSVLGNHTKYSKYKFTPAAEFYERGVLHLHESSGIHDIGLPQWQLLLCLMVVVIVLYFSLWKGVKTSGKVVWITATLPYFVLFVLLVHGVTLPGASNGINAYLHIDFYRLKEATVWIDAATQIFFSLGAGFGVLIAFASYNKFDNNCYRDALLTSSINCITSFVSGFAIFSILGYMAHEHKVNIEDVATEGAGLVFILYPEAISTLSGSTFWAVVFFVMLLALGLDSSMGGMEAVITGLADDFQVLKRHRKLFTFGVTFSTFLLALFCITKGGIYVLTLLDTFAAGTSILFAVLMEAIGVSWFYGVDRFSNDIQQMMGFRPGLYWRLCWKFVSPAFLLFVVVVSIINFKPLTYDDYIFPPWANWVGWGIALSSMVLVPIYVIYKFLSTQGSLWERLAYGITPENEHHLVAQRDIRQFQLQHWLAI
For `COc1ccc2c(c1)c(CC(=O)OCC(=O)O)c(C)n2C(=O)c1ccc(Cl)cc1` [ACEMETACIN], the IC50 result is “Not Active”.

The target in the next data set is T2, Endothelin-1 receptor (Homo sapiens, UniProt P25101). Note: in other assays of this panel Not Active means under 50% inhibition at 10 µM.
T2 sequence (P25101 whole entry): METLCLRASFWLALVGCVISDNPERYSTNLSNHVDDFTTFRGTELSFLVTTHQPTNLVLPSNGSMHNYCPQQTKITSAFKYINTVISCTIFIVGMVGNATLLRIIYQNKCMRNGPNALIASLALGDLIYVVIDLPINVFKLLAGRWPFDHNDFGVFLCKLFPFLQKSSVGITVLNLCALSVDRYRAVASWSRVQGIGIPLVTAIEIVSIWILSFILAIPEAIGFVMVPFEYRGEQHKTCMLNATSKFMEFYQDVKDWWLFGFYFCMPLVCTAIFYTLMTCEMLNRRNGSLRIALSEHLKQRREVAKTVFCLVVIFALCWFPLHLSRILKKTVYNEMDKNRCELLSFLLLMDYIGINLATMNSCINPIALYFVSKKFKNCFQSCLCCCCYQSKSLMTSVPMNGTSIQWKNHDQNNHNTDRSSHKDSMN
Format: cell membranes, Membrane. The note with it: cho-k1.
For `COc1ccc2c(c1)c(CC(=O)OCC(=O)O)c(C)n2C(=O)c1ccc(Cl)cc1` [ACEMETACIN], the IC50 entry is listed as “Not Active”.

The target of the next data set is Cytochrome P450 2C9 (Homo sapiens, UniProt P11712). The note with it: bti-tn-5b1-4. Note: in other assays of this panel Not Active means under 50% inhibition at 10 µM.
Chain of Cytochrome P450 2C9 (P11712 whole entry): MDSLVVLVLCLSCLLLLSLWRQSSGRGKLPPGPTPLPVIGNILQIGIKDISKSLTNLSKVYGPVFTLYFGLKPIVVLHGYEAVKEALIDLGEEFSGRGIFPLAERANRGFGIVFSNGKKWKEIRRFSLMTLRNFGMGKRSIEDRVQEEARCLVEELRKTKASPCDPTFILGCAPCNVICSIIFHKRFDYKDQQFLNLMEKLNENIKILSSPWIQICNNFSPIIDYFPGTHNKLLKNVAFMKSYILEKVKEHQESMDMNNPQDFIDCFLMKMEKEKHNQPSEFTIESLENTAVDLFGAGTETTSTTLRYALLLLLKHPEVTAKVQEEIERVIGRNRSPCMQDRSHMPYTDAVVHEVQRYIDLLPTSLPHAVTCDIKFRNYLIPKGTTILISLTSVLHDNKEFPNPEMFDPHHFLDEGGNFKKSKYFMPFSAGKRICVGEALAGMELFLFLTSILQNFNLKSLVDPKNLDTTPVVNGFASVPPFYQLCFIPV
For the compound `COc1ccc2c(c1)c(CC(=O)OCC(=O)O)c(C)n2C(=O)c1ccc(Cl)cc1` [ACEMETACIN], the IC50 entry is “Not Active” and the Ki result is on record as “Not Active”.

Test system in a further data set: not listed separately
The data set is described as follows: DRUGMATRIX: Phosphodiesterase PDE3 enzyme inhibition (substrate: [3H]cAMP + cAMP). Format: tissue-based, Homo sapiens. The conditions noted are these: platelet; Not Active = under 50% inhibition at 10 µM.
Take `COc1ccc2c(c1)c(CC(=O)OCC(=O)O)c(C)n2C(=O)c1ccc(Cl)cc1` [ACEMETACIN]: the IC50 result is reported as “Not Active” and the Ki result is “Not Active”.

A further data set has as its target T3, Muscarinic acetylcholine receptor M2 (Homo sapiens, UniProt P08172). Note: in other assays of this panel Not Active means under 50% inhibition at 10 µM.
T3 sequence (P08172 whole entry): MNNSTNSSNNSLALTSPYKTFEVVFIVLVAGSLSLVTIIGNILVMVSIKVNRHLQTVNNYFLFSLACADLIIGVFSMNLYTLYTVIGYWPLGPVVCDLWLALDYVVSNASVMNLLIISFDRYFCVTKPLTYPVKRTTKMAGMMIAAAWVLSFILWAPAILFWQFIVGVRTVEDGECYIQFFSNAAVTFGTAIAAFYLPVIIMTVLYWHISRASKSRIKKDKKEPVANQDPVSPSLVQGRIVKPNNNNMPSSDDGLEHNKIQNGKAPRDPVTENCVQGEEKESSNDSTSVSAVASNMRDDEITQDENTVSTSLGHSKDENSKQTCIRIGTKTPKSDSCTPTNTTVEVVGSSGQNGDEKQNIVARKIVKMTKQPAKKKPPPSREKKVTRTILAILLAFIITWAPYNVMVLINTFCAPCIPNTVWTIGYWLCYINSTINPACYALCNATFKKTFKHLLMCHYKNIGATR
Format: cell membranes, CHO-K1, Membrane. The note with it: cho-k1.
With `COc1ccc2c(c1)c(CC(=O)OCC(=O)O)c(C)n2C(=O)c1ccc(Cl)cc1` [ACEMETACIN], the IC50 entry is reported as “Not Active”.

Test system in the next data set: not listed separately
The data set is described as follows: DRUGMATRIX: Atrial Natriuretic Factor (ANF) radioligand binding (ligand: [125I] ANF (rat)). Format: cell membranes, Cavia porcellus, Dunkin-Hartley, Adrenal gland, Membrane. The note with it: Not Active = under 50% inhibition at 10 µM.
Turning to `COc1ccc2c(c1)c(CC(=O)OCC(=O)O)c(C)n2C(=O)c1ccc(Cl)cc1` [ACEMETACIN], the IC50 entry is “Not Active” and the Ki entry is on record as “Not Active”.

The next data set has as its target T4, 5-hydroxytryptamine receptor 1A (Rattus norvegicus, UniProt P19327). Note: in other assays of this panel Not Active means under 50% inhibition at 10 µM.
T4 sequence (P19327 whole entry): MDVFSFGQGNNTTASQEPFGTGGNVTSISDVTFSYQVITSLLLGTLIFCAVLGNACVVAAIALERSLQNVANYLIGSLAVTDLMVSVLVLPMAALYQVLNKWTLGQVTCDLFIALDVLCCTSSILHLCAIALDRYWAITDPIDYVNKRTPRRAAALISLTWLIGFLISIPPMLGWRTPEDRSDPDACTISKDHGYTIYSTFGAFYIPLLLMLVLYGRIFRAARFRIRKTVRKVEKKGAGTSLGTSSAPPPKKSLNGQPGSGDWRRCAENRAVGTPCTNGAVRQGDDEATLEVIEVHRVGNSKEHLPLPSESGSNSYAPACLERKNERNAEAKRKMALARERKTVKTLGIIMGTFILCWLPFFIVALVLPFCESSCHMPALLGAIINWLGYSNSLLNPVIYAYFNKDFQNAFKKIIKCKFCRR
Format: cell membranes, CHO-K1, Membrane. The conditions noted are these: cho-k1.
As for `COc1ccc2c(c1)c(CC(=O)OCC(=O)O)c(C)n2C(=O)c1ccc(Cl)cc1` [ACEMETACIN], the IC50 entry was “Not Active”.
